Data reported in patent US6986997B1, “Method for screening using an OAT1 transporter protein” (Fuji Bio Medix Co., Ltd., priority 1997, dated 2006).
Where two headings read alike, the source gives them in different places.

Legend:
[1] = system: basolateral organic anion transport system; conditions: Ullrich and Rumrich, Am. J. Physiol. 254, F453-462, 1988; read-out: Km value previously reported for the basolateral organic anion transport system; cited from earlier work
rat OAT1 [2] = target: T1, rat OAT1 (Rattus norvegicus, UniProt O35956); assay: Uptake of radio labeled substances into oocytes expressing OAT1; format: cell-based
T1 construct: with full-length OAT1 cDNA labeled with; expressed in transfected cells; host or cells: Xenopus laevis oocytes injected with in vitro transcribed cRNA
T1 sequence (O35956 1-551): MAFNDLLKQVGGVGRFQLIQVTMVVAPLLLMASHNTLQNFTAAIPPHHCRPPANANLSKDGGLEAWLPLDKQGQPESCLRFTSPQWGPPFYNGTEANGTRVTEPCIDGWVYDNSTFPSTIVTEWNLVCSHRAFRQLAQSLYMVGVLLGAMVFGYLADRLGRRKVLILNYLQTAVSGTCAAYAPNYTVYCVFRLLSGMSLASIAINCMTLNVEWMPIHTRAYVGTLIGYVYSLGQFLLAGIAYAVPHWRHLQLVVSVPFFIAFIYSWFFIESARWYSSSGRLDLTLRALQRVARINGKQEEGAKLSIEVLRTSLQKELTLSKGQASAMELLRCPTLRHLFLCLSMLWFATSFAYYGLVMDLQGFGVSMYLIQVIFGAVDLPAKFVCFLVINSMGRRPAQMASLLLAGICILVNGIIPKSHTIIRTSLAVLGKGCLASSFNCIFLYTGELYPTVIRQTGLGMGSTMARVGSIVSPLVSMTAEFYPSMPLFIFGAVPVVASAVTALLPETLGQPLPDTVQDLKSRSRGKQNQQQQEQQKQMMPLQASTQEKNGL
Source text: Several radio labeled compounds were examined whether they are taken up into oocytes via OAT1.
Control oocytes were those which were not injected with cRNA.

rat OAT1 [3] = target: T1, rat OAT1; assay: Cis-inhibition of 14C-PAH uptake in oocytes injected with rat OAT1 cRNA; format: cell-based; conditions: 2 μM 14C-PAH, 2 mM non-labeled substance, ND96 solution; for inhibition at 1 h, 2 mM: rat, oocytes injected with rat OAT1 cRNA, probe 14C-PAH (p-aminohippurate), read-out: inhibition of OAT1-mediated 14C-PAH uptake
[4] = versus control oocytes not injected with cRNA

| transport of radio labeled substance into oocytes expressing OAT1 (rat OAT1 [2]; [4]) | cis-inhibitory effect on OAT1-mediated 14C-PAH uptake (in words) (rat OAT1 [3]) | inhibition at 1 h, 2 mM (rat OAT1 [3]) | SMILES | further results |
| --- | --- | --- | --- | --- |
| – | – | – | Nc1ccc(C(=O)NCC(=O)O)cc1 [PAH, para-aminohippurate] | Km [1]: 80 µM |
| – | – | – | C[C@H](CCC(=O)NCCS(=O)(=O)O)[C@H]1CC[C@H]2[C@@H]3[C@H](O)C[C@@H]4C[C@H](O)CC[C@]4(C)[C@H]3C[C@H](O)[C@]12C [^3H-taurocholic acid, taurocholic acid] | transport of radio labeled substance into oocytes expressing OAT1 (rat OAT1 [2]): not detected |
| transported | inhibited | – | Nc1nc2c(ncn2[C@@H]2O[C@@H]3COP(=O)(O)O[C@H]3[C@H]2O)c(=O)[nH]1 [cyclic-GMP] | – |
| – | – | > 85% | C=C(CC)C(=O)c1ccc(OCC(=O)O)c(Cl)c1Cl [ethacrynic acid] | – |
| – | – | > 85% | COc1ccc2c(c1)c(CC(=O)O)c(C)n2C(=O)c1ccc(Cl)cc1 [indomethacin] | – |
| – | – | > 85% | CCn1cc(C(=O)O)c(=O)c2ccc(C)nc21 [nalidixic acid] | – |
| transported | inhibited | – | O=c1[nH]c(=O)c2[nH]c(=O)[nH]c2[nH]1 [uric acid] | – |
| – | – | > 85% | CCCC(CCC)C(=O)O [valproic acid] | – |

| SMILES | transport of radio labeled substance into oocytes expressing OAT1 (rat OAT1 [2]; [4]) | cis-inhibitory effect on OAT1-mediated 14C-PAH uptake (in words) (rat OAT1 [3]) | inhibition at 1 h, 2 mM (rat OAT1 [3]) | further results |
| --- | --- | --- | --- | --- |
| CC[N+](CC)(CC)CC [^14C-TEA, tetraethylammonium, reference compound] | not detected | – | – | – |
| Nc1ncnc2c1ncn2[C@@H]1O[C@@H]2COP(=O)(O)O[C@H]2[C@H]1O [cyclic-AMP] | – | inhibited | – | transport of radio labeled substance into oocytes expressing OAT1 (rat OAT1 [2]): transported |
